From PubChem BioAssay AID1963960 (Molecular Pharmacology Branch, DTP, NCI, 2024)

Tested on: MDA-MB-468 spheroids with HUVEC/MSC, viability
Experiment: Anticancer human tumor MDA-MB-468 cell line growth inhibition [PI3K];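 further: spheroids exposed to agents for seven days before readout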;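 on viability, T/C: 100% = DMSO vehicle control viability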
Details: for IC50: curve of first compound; for viability, T/C: stronger effect = lower value
Method in brief: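 Three cell types, namely tumor cells, endothelial cells and mesenchymal stem cells, formed each spheroid. Combinations with four PI3K inhibitors were screened at clinically achievable concentrations decreasing by half-log, and spheroid viability was recorded.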

[1] = second compound 0.00316 µM, first compound 0.000316 µM
[2] = second compound 0.00316 µM, first compound 0.001 µM
[3] = second compound 0.00316 µM, first compound 0.00316 µM
[4] = second compound 0.00316 µM, first compound 0.01 µM
[5] = second compound 0.00316 µM, first compound 0.0316 µM
[6] = second compound 0.00316 µM, first compound 0.1 µM
[7] = second compound 0.01 µM, first compound 0.000316 µM
[8] = second compound 0.01 µM, first compound 0.001 µM
[9] = second compound 0.01 µM, first compound 0.00316 µM
[10] = second compound 0.01 µM, first compound 0.01 µM
[11] = second compound 0.01 µM, first compound 0.0316 µM
[12] = second compound 0.01 µM, first compound 0.1 µM
[13] = second compound 0.0316 µM, first compound 0.000316 µM
[14] = second compound 0.0316 µM, first compound 0.001 µM
[15] = second compound 0.0316 µM, first compound 0.00316 µM
[16] = second compound 0.0316 µM, first compound 0.01 µM
[17] = second compound 0.0316 µM, first compound 0.0316 µM
[18] = second compound 0.0316 µM, first compound 0.1 µM
[19] = second compound 0.1 µM, first compound 0.000316 µM
[20] = second compound 0.1 µM, first compound 0.001 µM
[21] = second compound 0.1 µM, first compound 0.00316 µM
[22] = second compound 0.1 µM, first compound 0.01 µM
[23] = second compound 0.1 µM, first compound 0.0316 µM
[24] = second compound 0.1 µM, first compound 0.1 µM
[25] = second compound 0.316 µM, first compound 0.000316 µM
[26] = second compound 0.316 µM, first compound 0.001 µM
[27] = second compound 0.316 µM, first compound 0.00316 µM
[28] = second compound 0.316 µM, first compound 0.01 µM
[29] = second compound 0.316 µM, first compound 0.0316 µM
[30] = second compound 0.316 µM, first compound 0.1 µM
[31] = second compound 1 µM, first compound 0.000316 µM
[32] = second compound 1 µM, first compound 0.001 µM
[33] = second compound 1 µM, first compound 0.00316 µM
[34] = second compound 1 µM, first compound 0.01 µM
[35] = second compound 1 µM, first compound 0.0316 µM
[36] = second compound 1 µM, first compound 0.1 µM

Structure (SMILES): CC(=O)c1c(C)c2cnc(Nc3ccc(N4CCNCC4)cn3)nc2n(C2CCCC2)c1=O + COc1c(OCCCN2CCOCC2)ccc2c3n(c(=NC(=O)c4cnc(N)nc4)nc12)CCN3
- IC50 (second compound 0.00316 µM): > 100 nM
- IC50 (second compound 0.01 µM): > 100 nM
- IC50 (second compound 0.0316 µM): > 100 nM
- IC50 (second compound 0.1 µM): > 100 nM
- IC50 (second compound 0.316 µM): < 0.316 nM
- IC50 (second compound 1 µM): < 0.316 nM
- viability, T/C [1]: 105%
- viability, T/C [2]: 92.6%
- viability, T/C [3]: 92.5%
- viability, T/C [4]: 99.7%
- viability, T/C [5]: 90.1%
- viability, T/C [6]: 91.5%
- viability, T/C [7]: 85.7%
- viability, T/C [8]: 84%
- viability, T/C [9]: 81.2%
- viability, T/C [10]: 86.2%
- viability, T/C [11]: 86.8%
- viability, T/C [12]: 110%
- viability, T/C [13]: 64.1%
- viability, T/C [14]: 67.5%
- viability, T/C [15]: 72.2%
- viability, T/C [16]: 79.8%
- viability, T/C [17]: 83.2%
- viability, T/C [18]: 86.4%
- viability, T/C [19]: 59.5%
- viability, T/C [20]: 62.8%
- viability, T/C [21]: 58.8%
- viability, T/C [22]: 61.5%
- viability, T/C [23]: 64.1%
- viability, T/C [24]: 53.2%
- viability, T/C [25]: 26.6%
- viability, T/C [26]: 25.5%
- viability, T/C [27]: 27.1%
- viability, T/C [28]: 26.3%
- viability, T/C [29]: 27.1%
- viability, T/C [30]: 27.9%
- viability, T/C [31]: 3.5%
- viability, T/C [32]: 3.63%
- viability, T/C [33]: 2.3%
- viability, T/C [34]: 3.4%
- viability, T/C [35]: 2.94%
- viability, T/C [36]: 2.61%

Structure (SMILES): CC(C)n1nc(-c2ccc3oc(N)nc3c2)c2c(N)ncnc21 + COc1c(OCCCN2CCOCC2)ccc2c3n(c(=NC(=O)c4cnc(N)nc4)nc12)CCN3
- IC50 (second compound 0.00316 µM): 34.2 nM
- IC50 (second compound 0.01 µM): 41.7 nM
- IC50 (second compound 0.0316 µM): 32 nM
- IC50 (second compound 0.1 µM): 10.4 nM
- IC50 (second compound 0.316 µM): < 0.316 nM
- IC50 (second compound 1 µM): < 0.316 nM
- viability, T/C [1]: 81.1%
- viability, T/C [2]: 87%
- viability, T/C [3]: 95.5%
- viability, T/C [4]: 88.3%
- viability, T/C [5]: 52.3%
- viability, T/C [6]: 18.8%
- viability, T/C [7]: 77.2%
- viability, T/C [8]: 83.5%
- viability, T/C [9]: 87.7%
- viability, T/C [10]: 81.1%
- viability, T/C [11]: 61.1%
- viability, T/C [12]: 14.9%
- viability, T/C [13]: 75.6%
- viability, T/C [14]: 84.4%
- viability, T/C [15]: 80.9%
- viability, T/C [16]: 68%
- viability, T/C [17]: 51.2%
- viability, T/C [18]: 11.6%
- viability, T/C [19]: 49.8%
- viability, T/C [20]: 63.6%
- viability, T/C [21]: 53.7%
- viability, T/C [22]: 49.9%
- viability, T/C [23]: 36%
- viability, T/C [24]: 7.66%
- viability, T/C [25]: 28.2%
- viability, T/C [26]: 25.8%
- viability, T/C [27]: 28.1%
- viability, T/C [28]: 24.9%
- viability, T/C [29]: 15.4%
- viability, T/C [30]: 3.12%
- viability, T/C [31]: 3.84%
- viability, T/C [32]: 3.57%
- viability, T/C [33]: 2.98%
- viability, T/C [34]: 3%
- viability, T/C [35]: 1.87%
- viability, T/C [36]: 0.59%

Structure (SMILES): CCCS(=O)(=O)Nc1ccc(F)c(C(=O)c2c[nH]c3ncc(-c4ccc(Cl)cc4)cc23)c1F + COc1c(OCCCN2CCOCC2)ccc2c3n(c(=NC(=O)c4cnc(N)nc4)nc12)CCN3
- IC50 (second compound 0.00316 µM): 5170 nM
- IC50 (second compound 0.01 µM): 5380 nM
- IC50 (second compound 0.0316 µM): 4500 nM
- IC50 (second compound 0.1 µM): 2110 nM
- IC50 (second compound 0.316 µM): < 31.6 nM
- IC50 (second compound 1 µM): < 31.6 nM
- viability, T/C [5]: 84.8%
- viability, T/C [6]: 102%
- viability, T/C (second compound 0.00316 µM, first compound 0.316 µM): 84.6%
- viability, T/C (second compound 0.00316 µM, first compound 1 µM): 102%
- viability, T/C (second compound 0.00316 µM, first compound 3.16 µM): 74.1%
- viability, T/C (second compound 0.00316 µM, first compound 10 µM): 17.9%
- viability, T/C [11]: 84.2%
- viability, T/C [12]: 82.3%
- viability, T/C (second compound 0.01 µM, first compound 0.316 µM): 93.9%
- viability, T/C (second compound 0.01 µM, first compound 1 µM): 84.3%
- viability, T/C (second compound 0.01 µM, first compound 3.16 µM): 75.6%
- viability, T/C (second compound 0.01 µM, first compound 10 µM): 20%
- viability, T/C [17]: 74.1%
- viability, T/C [18]: 78.2%
- viability, T/C (second compound 0.0316 µM, first compound 0.316 µM): 76.5%
- viability, T/C (second compound 0.0316 µM, first compound 1 µM): 74.3%
- viability, T/C (second compound 0.0316 µM, first compound 3.16 µM): 64.9%
- viability, T/C (second compound 0.0316 µM, first compound 10 µM): 16.2%
- viability, T/C [23]: 55.8%
- viability, T/C [24]: 56.5%
- viability, T/C (second compound 0.1 µM, first compound 0.316 µM): 64.7%
- viability, T/C (second compound 0.1 µM, first compound 1 µM): 59.1%
- viability, T/C (second compound 0.1 µM, first compound 3.16 µM): 45.2%
- viability, T/C (second compound 0.1 µM, first compound 10 µM): 12.3%
- viability, T/C [29]: 28.1%
- viability, T/C [30]: 29.7%
- viability, T/C (second compound 0.316 µM, first compound 0.316 µM): 29.1%
- viability, T/C (second compound 0.316 µM, first compound 1 µM): 27.6%
- viability, T/C (second compound 0.316 µM, first compound 3.16 µM): 26.6%
- viability, T/C (second compound 0.316 µM, first compound 10 µM): 8.09%
- viability, T/C [35]: 4.14%
- viability, T/C [36]: 4.88%
- viability, T/C (second compound 1 µM, first compound 0.316 µM): 4.04%
- viability, T/C (second compound 1 µM, first compound 1 µM): 5.95%
- viability, T/C (second compound 1 µM, first compound 3.16 µM): 5.41%
- viability, T/C (second compound 1 µM, first compound 10 µM): 3.73%
